Measurements published in patent US9902728B2, “Pyrrolo and pyrazolopyrimidines as ubiquitin-specific protease 7 inhibitors” (Forma Therapeutics, Inc., priority 2014, dated 2018).

target: T1, USP7 (Homo sapiens, UniProt Q93009); test: USP7 Assay A (Ubitquin-Rhodamine 110 Assay); assay type: biochemical; details: USP7 activity in USP7 assay A and B (table does not say which assay per compound); read-out: USP7_IC50
T1 construct: USP7, construct USP7 (208-1102) 6*His, Viva Biotech; 6xHis (C); purchased Viva Biotech
Procedure, shortened: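 Ub-Rh110 cleavage in 20 mM Tris-HCl pH 8.0 with 1 mM GSH, 0.03% BGG, 0.01% Triton X-100; compound preincubated with enzyme 30 min before substrate.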

T1 sequence (Q93009 208-1102): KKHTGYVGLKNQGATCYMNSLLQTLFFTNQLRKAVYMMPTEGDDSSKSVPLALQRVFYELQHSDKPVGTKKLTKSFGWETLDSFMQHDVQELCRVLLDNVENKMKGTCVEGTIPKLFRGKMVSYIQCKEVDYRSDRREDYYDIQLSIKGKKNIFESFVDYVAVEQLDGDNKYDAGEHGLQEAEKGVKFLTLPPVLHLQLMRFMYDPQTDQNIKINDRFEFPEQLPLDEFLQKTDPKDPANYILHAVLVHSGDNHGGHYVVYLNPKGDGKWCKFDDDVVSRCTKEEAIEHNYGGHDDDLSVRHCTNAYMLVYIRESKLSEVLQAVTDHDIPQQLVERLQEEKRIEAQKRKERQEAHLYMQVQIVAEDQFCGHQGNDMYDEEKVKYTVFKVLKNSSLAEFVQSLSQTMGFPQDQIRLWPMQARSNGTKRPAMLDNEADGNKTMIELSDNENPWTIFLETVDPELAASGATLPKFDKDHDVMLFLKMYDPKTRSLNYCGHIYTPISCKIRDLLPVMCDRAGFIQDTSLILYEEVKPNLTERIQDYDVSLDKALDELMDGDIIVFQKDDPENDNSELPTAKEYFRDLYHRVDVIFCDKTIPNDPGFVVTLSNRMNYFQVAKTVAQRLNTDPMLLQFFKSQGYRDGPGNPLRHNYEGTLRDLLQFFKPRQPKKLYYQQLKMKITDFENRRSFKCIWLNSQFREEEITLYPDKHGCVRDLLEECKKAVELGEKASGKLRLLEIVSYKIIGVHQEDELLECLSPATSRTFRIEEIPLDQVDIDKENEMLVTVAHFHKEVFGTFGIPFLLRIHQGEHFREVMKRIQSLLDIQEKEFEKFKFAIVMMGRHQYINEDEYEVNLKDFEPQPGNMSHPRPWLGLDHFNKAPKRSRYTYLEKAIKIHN

`O=C(c1ccc(F)cc1)N1CCC(O)(Cn2cnc3c(cnn3-c3ccc(N4CC[C@H](O)C4)cc3)c2=O)CC1` [Compound I-1434] and `Cc1cn(-c2ccc(-n3ncc4c(=O)n(CC5(O)CCN(C(=O)c6ccc(F)cc6)CC5)cnc43)cc2)cn1` [Compound I-987] fall in the same range of IC50: 1000 to 10000 nM for the first, 1000 to 10000 nM for the second.

First: Cc1ncc(OC2CCC(C(=O)N3CCC(O)(Cn4cnc5c(cnn5-c5ccc(F)cc5)c4=O)CC3)CC2)cn1 (centres unmarked) [Compound I-1022]
Second: O=C(C1CCC(Oc2cccnc2)CC1)N1CCC(O)(Cn2cnc3c(cnn3-c3ccc(F)cc3)c2=O)CC1 (centres unmarked) [Compound I-749]
The IC50 of the first is higher: 200 to 1000 nM for the first, less than 200 nM for the second. The second is the more potent here.

First: CC1CN(c2cccc(-n3ncc4c(=O)n(CC5(O)CCN(C(=O)C6(C)CC6)CC5)cnc43)c2)CC(C)N1C (centres unmarked) [Compound I-1645]
Second: CC1(C(=O)N2CCC(O)(Cn3cnc4c(cnn4-c4ccc(N5CC6CC(C5)O6)cc4)c3=O)CC2)CC1 [Compound I-1643]
The IC50 of the first is lower: less than 200 nM for the first, 200 to 1000 nM for the second.

First: Cn1ccc2c(=O)n(CC3(O)CCN(C(=O)CC(C(F)F)n4ccc(F)n4)CC3)cnc21 (single isomer, unassigned) [Compound I-1695]
Second: Cc1ccc(-n2ncc3c(=O)n(CC4(O)CCN(C(=O)C[C@@H](C(F)F)n5ccc(F)n5)CC4)cnc32)cc1 [Compound I-797]
The IC50 of the first is lower: less than 200 nM for the first, 1000 to 10000 nM for the second.

First: O=C(C1CC1)N1CCC(O)(Cn2cnc3c(cnn3-c3ccc(-c4cncc(C(F)(F)F)c4)cc3)c2=O)CC1 [Compound I-1737]
Second: O=C(C1CCC(Oc2ccccn2)CC1)N1CCC(O)(Cn2cnc3c(cnn3-c3ccc(F)cc3)c2=O)CC1 (centres unmarked) [Compound I-545]
The IC50 of the first is higher: 1000 to 10000 nM for the first, 200 to 1000 nM for the second.

First: CC1(C(=O)N2CCC(O)(Cn3cnc4c(cnn4-c4ccc(N5CCC(F)CC5)cc4)c3=O)CC2)CC1 [Compound I-1445]
Second: CC1(C(=O)N2CCC(O)(Cn3cnc4c(cnn4-c4ccc(-c5cnn(C6CCOCC6)c5)cc4)c3=O)CC2)CCC1 [Compound I-1719]
The IC50 of the first is higher: 200 to 1000 nM for the first, less than 200 nM for the second. The second is the more potent here.

First: O=C(c1ccc(-c2cnn3c2OCC3)cc1)N1CCC(O)(Cn2cnc3c(cnn3-c3ccc(F)cc3)c2=O)CC1 [Compound I-550]
Second: Cc1cnn([C@H](CC(=O)N2CCC(O)(Cn3cnc4c(cnn4-c4ccc(F)cc4)c3=O)CC2)C(F)F)c1 [Compound I-735]
The IC50 of the first is lower: 200 to 1000 nM for the first, 1000 to 10000 nM for the second.

`O=C(C[C@H](C(F)F)n1ccc(F)n1)N1CCC(O)(Cn2cnc3c(cnn3-c3ccc(F)cc3)c2=O)CC1` [Compound I-543] was tested, and the IC50 was 200 to 1000 nM.

same assay, conditions: USP7 assay A and B (table does not say which assay per compound); read-out: USP7_IC50

`COCCN(C)Cc1ccc(-n2ncc3c(=O)n(CC4(O)CCN(C(=O)C5CC5)CC4)cnc32)cc1` [Compound I-434] and `CC(C)CN(C)Cc1cccc(-n2ncc3c(=O)n(CC4(O)CCN(C(=O)C5CC5)CC4)cnc32)c1` [Compound I-452] fall in the same range of IC50: 1000 to 10000 nM for the first, 1000 to 10000 nM for the second.

First: O=C(C1CC1)N1CCC(O)(Cn2cnc3c(cnn3-c3ccc(N4CCN5CCCCC5C4)cc3)c2=O)CC1 (centres unmarked) [Compound I-1584]
Second: N#CC1CCN(Cc2cccc(-n3ncc4c(=O)n(CC5(O)CCN(C(=O)C6CC6)CC5)cnc43)c2)CC1 [Compound I-446]
The IC50 of the first is lower: 200 to 1000 nM for the first, 1000 to 10000 nM for the second. The first is the more potent here.

`O=C(c1ccc(N2CCOCC2)nc1)N1CCC(O)(Cn2cnc3c(cnn3-c3ccc(F)cc3)c2=O)CC1` [Compound I-419] and `O=C(c1ccc(F)cc1)N1CCC(O)(Cn2cnc3c(cnn3-c3ccc(OCC4CCOCC4)cc3)c2=O)CC1` [Compound I-1324] fall in the same range of IC50: 1000 to 10000 nM for the first, 1000 to 10000 nM for the second.

`CN(C)C(=O)N1CCC(O)(Cn2cnc3c(cnn3-c3ccc(N4CCC(F)(F)CC4)cc3)c2=O)CC1` [Compound I-1461] and `O=C(N1CCC(O)(Cn2cnc3c(cnn3-c3ccccc3)c2=O)CC1)C12CC(C(F)(F)F)(C1)C2` [Compound I-290] fall in the same range of IC50: 1000 to 10000 nM for the first, 1000 to 10000 nM for the second.

`O=C(Nc1ccc(-n2ncc3c(=O)n(CC4(O)CCN(C(=O)C5CC5)CC4)cnc32)cc1)c1ccccc1F` [Compound I-1380] and `COc1ccc(Nc2ccc(-n3ncc4c(=O)n(CC5(O)CCN(C(=O)C6CC6)CC5)cnc43)cc2)cn1` [Compound I-1191] fall in the same range of IC50: 1000 to 10000 nM for the first, 1000 to 10000 nM for the second.

Compared with `O=C(c1ccc(Oc2ccccn2)cc1)N1CCC(O)(Cn2cnc3c(cnn3-c3ccc(Cl)cc3)c2=O)CC1` [Compound I-1519], `O=C(c1ccc(Oc2ccccc2)cc1)N1CCC(O)(Cn2cnc3c(cnn3-c3ccc(F)cc3)c2=O)CC1` [Compound I-66] is lower in IC50: 1000 to 10000 nM for the first, 200 to 1000 nM for the second. The second is the more potent here.

First: Cc1ccc(C(=O)N2CCC(O)(Cn3cnc4c(cnn4-c4ccccc4)c3=O)CC2)cc1C [Compound I-200]
Second: COc1ccc(C(=O)N2CCC(O)(Cn3cnc4c(cnn4-c4ccccc4)c3=O)CC2)cc1Cl [Compound I-214]
The IC50 of the first is higher: 1000 to 10000 nM for the first, 200 to 1000 nM for the second. The second is the more potent here.

Compared with `Cn1ncc2c(=O)n(CC3(O)CCN(C(=O)c4ccc(S(=O)(=O)Nc5ccccc5)cc4)CC3)cnc21` [Compound I-106], `CC(C)n1ncc2c(=O)n(CC3(O)CCN(C(=O)c4ccc(Oc5ccccc5)cc4)CC3)cnc21` [Compound I-62] is higher in IC50: 1000 to 10000 nM for the first, greater than 10000 nM for the second.

First: O=C(C1CC1)N1CCC(O)(Cn2cnc3c(cnn3C3CCCCC3)c2=O)CC1 [Compound I-29]
Second: C[C@@](O)(c1ccc(C(=O)N2CCC(O)(Cn3cnc4c(cnn4-c4ccc(F)cc4)c3=O)CC2)cc1)C(F)(F)F [Compound I-527]
The IC50 of the first is higher: greater than 10000 nM for the first, 1000 to 10000 nM for the second.

`Cc1ccc(-n2ncc3c(=O)n(CC4(O)CCN(C(=O)c5ccc(Oc6ncccn6)cc5)CC4)cnc32)cc1` [Compound I-1063] and `C[C@@H](CC(=O)N1CCC(O)(Cn2cnc3c(cnn3-c3ccc(-c4ccccc4)cc3)c2=O)CC1)n1cccn1` [Compound I-649] fall in the same range of IC50: 200 to 1000 nM for the first, 200 to 1000 nM for the second.
